Measured values from ChEMBL document CHEMBL1141367, “Substituted 2-[(4-aminomethyl)phenoxy]-2-methylpropionic acid PPARalpha agonists. 1. Discovery of a novel series of potent HDLc raising agents” (J Med Chem, 2007).

Assays:
[1] = Bioavailability in Wistar rat at 3 mg/kg, po; type: ADME, organism-based; settings: in vivo
[2] = tested on: Mus musculus; assay: Decrease in LDL cholesterol level in human Apo-A-I transgenic C57BL/6 mouse at 0.5 mg/kg, po; type: functional; set-up: scale not given: the % may be the effect or the level left
[3] = target: T1, Peroxisome proliferator-activated receptor delta (Homo sapiens, UniProt Q03181)
T1 sequence (Q03181 whole entry): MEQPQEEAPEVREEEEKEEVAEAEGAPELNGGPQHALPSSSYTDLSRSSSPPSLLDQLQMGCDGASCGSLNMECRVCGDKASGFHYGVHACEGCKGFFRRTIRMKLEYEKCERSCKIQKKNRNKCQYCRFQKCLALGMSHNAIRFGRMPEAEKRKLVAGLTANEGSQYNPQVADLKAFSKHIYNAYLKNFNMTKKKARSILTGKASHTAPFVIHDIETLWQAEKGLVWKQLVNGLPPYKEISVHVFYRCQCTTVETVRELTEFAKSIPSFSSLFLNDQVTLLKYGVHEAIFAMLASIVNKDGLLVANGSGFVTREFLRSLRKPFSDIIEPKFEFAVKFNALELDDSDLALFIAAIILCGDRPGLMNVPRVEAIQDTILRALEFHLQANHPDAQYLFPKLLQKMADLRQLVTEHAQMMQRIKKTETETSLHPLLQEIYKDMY
Description: Agonist potency at PPARdelta in CV1 cells by cell based transient transfection assay

[4] = tested on: Mus musculus; assay: Decrease in LDL cholesterol level in human Apo-A-I transgenic C57BL/6 mouse at 5 mg/kg, po; type: functional; set-up: scale not given: the % may be the effect or the level left
[5] = target: T2, Peroxisome proliferator-activated receptor delta (Mus musculus, UniProt P35396)
T2 sequence (P35396 whole entry): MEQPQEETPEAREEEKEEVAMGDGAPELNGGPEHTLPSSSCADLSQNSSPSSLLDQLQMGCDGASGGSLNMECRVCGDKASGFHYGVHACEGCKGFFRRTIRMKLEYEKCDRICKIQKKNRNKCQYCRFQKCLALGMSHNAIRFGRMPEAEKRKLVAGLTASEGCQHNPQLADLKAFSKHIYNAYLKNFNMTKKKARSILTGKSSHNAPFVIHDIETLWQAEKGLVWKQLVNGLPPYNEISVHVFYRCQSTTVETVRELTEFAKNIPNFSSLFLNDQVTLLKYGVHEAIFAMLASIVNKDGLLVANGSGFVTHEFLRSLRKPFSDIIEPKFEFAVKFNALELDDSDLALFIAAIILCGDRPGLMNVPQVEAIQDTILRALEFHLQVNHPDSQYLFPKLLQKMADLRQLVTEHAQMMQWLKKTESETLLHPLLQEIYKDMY
Description: Agonist potency at mouse PPARdelta

[6] = tested on: Canis familiaris; assay: Plasma concentration in Beagle dog at 3 mg/kg, po; type: ADME, organism-based, Canis lupus familiaris; set-up: dose 3 mg/kg, route oral; settings: in vivo
[7] = Plasma clearance in Wistar rat at 2.7 mg/kg, iv; type: ADME, organism-based; set-up: dose 2.7 mg/kg, route intravenous
[8] = tested on: Mus musculus; assay: Increase in HDL cholesterol level in human Apo-A-I transgenic C57BL/6 mouse at 5 mg/kg, po; type: functional
[9] = target: T3, Peroxisome proliferator-activated receptor gamma (Mus musculus, UniProt P37238)
T3 sequence (P37238 whole entry): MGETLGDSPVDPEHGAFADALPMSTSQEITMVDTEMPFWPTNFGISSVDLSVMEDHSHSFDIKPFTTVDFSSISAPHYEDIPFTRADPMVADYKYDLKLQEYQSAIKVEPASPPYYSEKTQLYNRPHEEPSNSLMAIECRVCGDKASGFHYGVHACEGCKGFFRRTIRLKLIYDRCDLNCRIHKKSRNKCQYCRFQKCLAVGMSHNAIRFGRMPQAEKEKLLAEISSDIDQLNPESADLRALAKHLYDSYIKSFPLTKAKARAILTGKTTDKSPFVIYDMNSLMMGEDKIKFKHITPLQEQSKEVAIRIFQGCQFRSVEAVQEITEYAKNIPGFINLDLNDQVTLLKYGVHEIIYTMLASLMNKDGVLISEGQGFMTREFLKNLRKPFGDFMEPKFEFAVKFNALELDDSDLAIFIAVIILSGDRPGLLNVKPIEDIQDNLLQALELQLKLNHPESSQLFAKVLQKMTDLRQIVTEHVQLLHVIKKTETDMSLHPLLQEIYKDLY
Description: Agonist potency at mouse PPARgamma

[10] = tested on: Mus musculus; assay: Decrease in VLDL cholesterol in human Apo-A-I transgenic C57BL/6 mouse at 0.5 mg/kg, po; type: functional; set-up: scale not given: the % may be the effect or the level left
[11] = Half life in Wistar rat plasma at 2.7 mg/kg, iv; type: ADME, organism-based; set-up: dose 2.7 mg/kg, route intravenous
[12] = target: T4, Peroxisome proliferator-activated receptor gamma (Homo sapiens, UniProt P37231); type: functional, cell-based, CV-1
T4 sequence (P37231 whole entry): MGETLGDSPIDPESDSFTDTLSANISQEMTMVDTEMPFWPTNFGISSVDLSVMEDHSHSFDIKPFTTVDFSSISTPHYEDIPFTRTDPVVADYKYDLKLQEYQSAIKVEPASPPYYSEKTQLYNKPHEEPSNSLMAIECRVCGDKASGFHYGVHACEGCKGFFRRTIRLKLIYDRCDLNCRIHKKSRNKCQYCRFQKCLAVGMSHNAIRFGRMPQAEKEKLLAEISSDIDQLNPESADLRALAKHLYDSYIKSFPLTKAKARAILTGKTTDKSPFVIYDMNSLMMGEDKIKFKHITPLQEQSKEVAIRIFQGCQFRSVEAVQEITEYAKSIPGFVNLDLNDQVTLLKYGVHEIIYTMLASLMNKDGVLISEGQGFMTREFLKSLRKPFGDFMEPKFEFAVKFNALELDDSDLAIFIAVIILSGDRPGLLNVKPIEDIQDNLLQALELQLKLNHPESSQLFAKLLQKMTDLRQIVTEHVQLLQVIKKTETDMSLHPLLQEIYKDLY
Description: Agonist potency at PPARgamma in CV1 cells by cell based transient transfection assay

[13] = tested on: Mus musculus; assay: Decrease in plasma TG level in human Apo-A-I transgenic C57BL/6 mouse at 5 mg/kg, po; type: functional; set-up: scale not given: the % may be the effect or the level left
[14] = target: T5, Peroxisome proliferator-activated receptor alpha (Mus musculus, UniProt P23204)
T5 sequence (P23204 whole entry): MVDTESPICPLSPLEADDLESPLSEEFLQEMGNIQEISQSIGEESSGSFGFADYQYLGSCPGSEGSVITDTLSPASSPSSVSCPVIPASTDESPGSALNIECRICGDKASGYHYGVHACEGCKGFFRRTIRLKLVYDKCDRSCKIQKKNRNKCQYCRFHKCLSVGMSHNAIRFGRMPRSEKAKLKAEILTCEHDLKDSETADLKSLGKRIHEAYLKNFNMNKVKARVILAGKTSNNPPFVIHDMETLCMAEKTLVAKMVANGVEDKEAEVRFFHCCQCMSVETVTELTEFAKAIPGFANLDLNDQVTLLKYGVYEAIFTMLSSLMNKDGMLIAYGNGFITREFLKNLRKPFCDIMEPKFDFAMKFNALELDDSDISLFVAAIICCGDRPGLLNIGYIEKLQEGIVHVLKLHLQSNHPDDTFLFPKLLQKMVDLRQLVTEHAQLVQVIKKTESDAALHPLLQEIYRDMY
Description: Agonist potency at mouse PPARalpha

[15] = tested on: Mus musculus; assay: Increase in HDL cholesterol level in human Apo-A-I transgenic C57BL/6 mouse at 1 mg/kg, po; type: functional

## Cc1nc(-c2ccc(C(F)(F)F)cc2)sc1C(=O)NCc1ccc(OC(C)(C)C(=O)O)cc1 [GW590735]
[1]
  bioavailability: 47%
[2]
  Activity: 61%
[3]
  EC50: 2.83 µM
[4]
  Activity: 69%
[5]
  EC50: 1 µM
[6]
  Cp: 1.449 µg/mL
[7]
  clearance: 0.3 L/h/kg
[8]
  Activity: 86%
[9]
  EC50: > 10 µM
[10]
  Activity: 48%
[11]
  half-life: 2.4 h
[12]
  EC50: > 10 µM
[13]
  Activity: 65%
[14]
  EC50: 0.015 µM
[15]
  Activity: 51%
